Test results as given in ChEMBL document CHEMBL5338706, “Discovery of a potent and selective proteolysis targeting chimera (PROTAC) degrader of NSD3 histone methyltransferase” (Eur J Med Chem, 2022).
Activity calls are given as the source filed them. The calls are words filed in the database; no cut-off is given here.

Assays:
NCI-H520 [1] = test: Downregulation of CyclinD1 level in human NCI-H520 cells at 3 to […] by Western blot analysis; type: functional, cell-based; conditions: dose 3-7.5 µM
[2] = biological target: Histone-lysine N-methyltransferase, H3 lysine-36 specific (Homo sapiens) (UniProt Q96L73); test: Induction of NSD1 degradation in human NCI-H1703 cells at 3 to […] incubated for 72 hrs by Western blot analysis; type: cell-based; conditions: dose 3-7.5 µM
Sequence of Histone-lysine N-methyltransferase, H3 lysine-36 specific (Homo sapiens) (Q96L73 whole entry): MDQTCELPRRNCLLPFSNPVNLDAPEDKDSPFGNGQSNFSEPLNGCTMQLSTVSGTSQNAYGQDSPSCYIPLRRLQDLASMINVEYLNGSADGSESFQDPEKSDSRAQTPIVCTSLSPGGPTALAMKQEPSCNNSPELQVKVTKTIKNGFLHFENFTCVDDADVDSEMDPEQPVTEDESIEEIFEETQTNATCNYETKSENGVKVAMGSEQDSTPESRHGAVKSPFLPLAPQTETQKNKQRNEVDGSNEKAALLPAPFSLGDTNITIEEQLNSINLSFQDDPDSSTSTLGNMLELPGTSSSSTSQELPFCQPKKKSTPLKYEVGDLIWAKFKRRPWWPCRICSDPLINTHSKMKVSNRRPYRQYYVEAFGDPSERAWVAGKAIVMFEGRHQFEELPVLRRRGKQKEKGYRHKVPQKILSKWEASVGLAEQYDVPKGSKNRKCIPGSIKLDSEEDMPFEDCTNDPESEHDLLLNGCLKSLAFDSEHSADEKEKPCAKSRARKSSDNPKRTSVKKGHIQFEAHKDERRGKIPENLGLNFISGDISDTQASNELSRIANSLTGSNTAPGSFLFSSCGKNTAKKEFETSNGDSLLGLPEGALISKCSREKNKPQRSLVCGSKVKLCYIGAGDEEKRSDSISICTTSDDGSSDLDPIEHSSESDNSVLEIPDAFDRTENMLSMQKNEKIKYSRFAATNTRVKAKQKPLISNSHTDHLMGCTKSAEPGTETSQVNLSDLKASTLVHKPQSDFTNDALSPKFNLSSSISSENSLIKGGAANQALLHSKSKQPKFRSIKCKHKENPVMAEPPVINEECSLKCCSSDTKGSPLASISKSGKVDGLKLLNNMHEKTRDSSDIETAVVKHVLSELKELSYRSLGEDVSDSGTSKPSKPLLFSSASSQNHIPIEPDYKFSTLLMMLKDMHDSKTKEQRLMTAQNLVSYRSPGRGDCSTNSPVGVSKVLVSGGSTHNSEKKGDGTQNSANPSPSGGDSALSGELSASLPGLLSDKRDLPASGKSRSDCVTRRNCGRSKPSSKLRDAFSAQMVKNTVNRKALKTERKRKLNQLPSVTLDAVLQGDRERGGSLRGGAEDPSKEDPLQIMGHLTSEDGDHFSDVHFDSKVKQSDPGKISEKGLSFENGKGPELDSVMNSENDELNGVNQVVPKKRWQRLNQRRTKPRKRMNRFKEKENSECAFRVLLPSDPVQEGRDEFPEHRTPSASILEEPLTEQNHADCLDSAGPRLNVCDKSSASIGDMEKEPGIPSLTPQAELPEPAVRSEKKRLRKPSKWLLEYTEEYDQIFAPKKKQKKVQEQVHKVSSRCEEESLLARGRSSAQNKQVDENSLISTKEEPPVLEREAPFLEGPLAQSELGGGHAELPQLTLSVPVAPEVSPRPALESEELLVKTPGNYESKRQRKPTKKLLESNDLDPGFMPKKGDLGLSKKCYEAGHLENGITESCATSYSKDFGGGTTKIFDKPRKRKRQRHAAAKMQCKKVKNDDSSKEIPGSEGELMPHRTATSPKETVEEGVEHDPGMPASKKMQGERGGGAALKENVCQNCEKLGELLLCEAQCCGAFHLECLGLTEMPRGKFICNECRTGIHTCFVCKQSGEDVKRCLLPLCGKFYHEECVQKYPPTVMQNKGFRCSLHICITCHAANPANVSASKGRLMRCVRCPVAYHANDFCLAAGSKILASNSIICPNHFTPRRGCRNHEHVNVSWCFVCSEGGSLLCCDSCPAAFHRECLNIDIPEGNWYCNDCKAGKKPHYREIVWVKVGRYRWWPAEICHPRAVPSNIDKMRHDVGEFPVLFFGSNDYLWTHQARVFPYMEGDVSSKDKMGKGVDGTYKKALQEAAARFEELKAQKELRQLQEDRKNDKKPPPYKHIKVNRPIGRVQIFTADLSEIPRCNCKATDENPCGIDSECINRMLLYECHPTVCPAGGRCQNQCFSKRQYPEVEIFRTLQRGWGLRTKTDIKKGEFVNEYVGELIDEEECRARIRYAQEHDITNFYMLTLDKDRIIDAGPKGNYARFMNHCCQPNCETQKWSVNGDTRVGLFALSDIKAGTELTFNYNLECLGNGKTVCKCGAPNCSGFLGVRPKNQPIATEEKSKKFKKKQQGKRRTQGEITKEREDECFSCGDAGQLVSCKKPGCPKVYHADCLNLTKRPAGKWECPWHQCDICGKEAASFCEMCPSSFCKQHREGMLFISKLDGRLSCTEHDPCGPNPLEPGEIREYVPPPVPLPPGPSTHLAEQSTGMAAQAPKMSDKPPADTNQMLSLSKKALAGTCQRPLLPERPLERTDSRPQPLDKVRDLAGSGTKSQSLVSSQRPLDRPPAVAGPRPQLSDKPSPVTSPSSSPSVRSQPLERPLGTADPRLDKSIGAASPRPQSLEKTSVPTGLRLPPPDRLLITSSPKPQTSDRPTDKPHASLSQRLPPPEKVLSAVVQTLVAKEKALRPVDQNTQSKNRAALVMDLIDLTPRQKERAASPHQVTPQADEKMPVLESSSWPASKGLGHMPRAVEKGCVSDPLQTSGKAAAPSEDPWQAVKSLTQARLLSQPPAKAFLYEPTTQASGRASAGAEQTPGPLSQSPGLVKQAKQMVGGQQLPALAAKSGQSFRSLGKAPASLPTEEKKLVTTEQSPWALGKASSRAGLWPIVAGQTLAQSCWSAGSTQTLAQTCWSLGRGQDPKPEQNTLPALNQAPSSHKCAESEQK

[3] = Downregulation of c-Myc level in human NCI-H520 cells at 3 uM by measuring fold change by Western blot analysis relative to control; type: functional
[4] = Downregulation of NSD3 level in human NCI-H1703 cells at 3 uM by measuring fold change by Western blot analysis relative to control; type: functional
NCI-H1703 [5] = test: Downregulation of CyclinD1 level in human NCI-H1703 cells at 3 to […] by Western blot analysis; type: functional, cell-based; conditions: dose 3-7.5 µM
NCI-H1703 [6] = test: Induction of apoptosis in human NCI-H1703 cells assessed as decrease in MCL-1 protein expression at 5 to 10 uM by Western blot analysis; type: functional, cell-based; conditions: dose 5-10 µM
[7] = biological target: T1, Histone-lysine N-methyltransferase NSD3 (Homo sapiens) (UniProt Q9BZ95); test: Induction of NSD3 degradation in human A549 cells assessed as reduction in H3K36me3 methylation incubated for 72 hrs by Western blot analysis; type: cell-based; conditions: dose 5-10 µM
T1 sequence (whole entry): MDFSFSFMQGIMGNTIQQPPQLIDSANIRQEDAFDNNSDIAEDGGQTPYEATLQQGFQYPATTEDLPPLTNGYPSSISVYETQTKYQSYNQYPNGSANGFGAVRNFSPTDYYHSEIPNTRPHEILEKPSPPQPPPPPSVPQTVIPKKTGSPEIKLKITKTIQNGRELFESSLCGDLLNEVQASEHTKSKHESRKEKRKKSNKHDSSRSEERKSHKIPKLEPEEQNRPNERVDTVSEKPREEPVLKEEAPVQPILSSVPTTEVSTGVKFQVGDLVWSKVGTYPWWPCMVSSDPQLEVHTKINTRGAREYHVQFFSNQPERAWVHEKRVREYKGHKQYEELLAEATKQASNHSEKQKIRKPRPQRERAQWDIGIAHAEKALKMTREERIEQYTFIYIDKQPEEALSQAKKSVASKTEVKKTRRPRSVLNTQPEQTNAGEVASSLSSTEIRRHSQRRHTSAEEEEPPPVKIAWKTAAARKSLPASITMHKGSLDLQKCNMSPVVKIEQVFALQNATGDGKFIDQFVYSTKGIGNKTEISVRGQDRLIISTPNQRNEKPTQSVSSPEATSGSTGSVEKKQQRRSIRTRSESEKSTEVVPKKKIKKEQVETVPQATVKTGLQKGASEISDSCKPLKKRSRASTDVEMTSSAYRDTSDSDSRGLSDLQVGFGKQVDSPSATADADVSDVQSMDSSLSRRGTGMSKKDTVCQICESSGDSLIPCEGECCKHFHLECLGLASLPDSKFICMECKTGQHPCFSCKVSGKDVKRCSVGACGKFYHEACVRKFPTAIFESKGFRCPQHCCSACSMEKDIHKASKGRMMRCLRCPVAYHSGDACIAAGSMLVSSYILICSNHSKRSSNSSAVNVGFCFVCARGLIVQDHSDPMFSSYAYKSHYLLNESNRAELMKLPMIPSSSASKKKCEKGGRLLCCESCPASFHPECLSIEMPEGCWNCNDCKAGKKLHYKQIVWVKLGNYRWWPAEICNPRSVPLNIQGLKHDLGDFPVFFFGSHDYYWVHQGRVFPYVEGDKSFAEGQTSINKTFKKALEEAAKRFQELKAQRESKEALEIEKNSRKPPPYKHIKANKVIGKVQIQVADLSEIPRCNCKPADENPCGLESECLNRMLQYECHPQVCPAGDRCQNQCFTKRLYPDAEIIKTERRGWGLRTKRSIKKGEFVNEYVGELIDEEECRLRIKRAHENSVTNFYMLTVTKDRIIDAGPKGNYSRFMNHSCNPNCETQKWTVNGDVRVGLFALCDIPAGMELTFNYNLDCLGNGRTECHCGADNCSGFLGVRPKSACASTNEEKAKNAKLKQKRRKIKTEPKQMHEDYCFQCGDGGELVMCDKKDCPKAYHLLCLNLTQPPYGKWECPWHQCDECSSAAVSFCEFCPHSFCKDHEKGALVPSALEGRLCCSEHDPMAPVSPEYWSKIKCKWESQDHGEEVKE

NCI-H1703 [8] = test: Induction of apoptosis in human NCI-H1703 cells assessed as decrease in NSD3 protein expression at […] by measuring fold change by Western blot analysis relative to control; type: functional; conditions: dose 7.5 µM
NCI-H1703 [9] = test: Induction of apoptosis in human NCI-H1703 cells assessed as early apoptotic cells at 10 uM measured after 72 hrs by PI/Annexin-V staining based flow cytometry analysis (reference value: 1.47% ); type: functional
A549 = test: Antiproliferative activity against human A549 cells incubated for 3 days by CCK-8 method; type: functional, cell-based; conditions: A549, 72 h
NCI-H1703 [10] = test: Induction of apoptosis in human NCI-H1703 cells assessed as viable cells at 10 uM measured after 72 hrs by PI/Annexin-V staining based flow cytometry analysis (reference value: 92.7% ); type: functional; conditions: read-out: Activity
NCI-H1703 [11] = test: Induction of apoptosis in human NCI-H1703 cells assessed as viable cells at 3 uM measured after 72 hrs by PI/Annexin-V staining based flow cytometry analysis (reference value: 92.7% ); type: functional; conditions: read-out: Activity
NCI-H1703 [12] = test: Downregulation of CDC25A in human NCI-H1703 cells at […] measured after 72 hrs by RNA sequencing assay; type: functional, cell-based; conditions: dose 7.5 µM
[13] = biological target: T2, Histone-lysine N-methyltransferase NSD3 (Homo sapiens, UniProt Q9BZ95); test: Induction of NSD3 degradation in human A549 cells measured after 72 hrs by Western blot analysis; type: cell-based
T2 sequence (Q9BZ95 whole entry): T1 sequence (whole entry)

NCI-H1703 [14] = test: Induction of apoptosis in human NCI-H1703 cells assessed as late apoptotic cells at 10 uM measured after 72 hrs by PI/Annexin-V staining based flow cytometry analysis (reference value: 3.00% ); type: functional
NCI-H1703 [15] = test: Induction of apoptosis in human NCI-H1703 cells assessed as necrotic cells at […] measured after 72 hrs by PI/Annexin-V staining based flow cytometry analysis (reference value: 2.80% ); type: functional; conditions: dose 7.5 µM
[16] = Downregulation of c-Myc level in human NCI-H520 cells at […] by measuring fold change by Western blot analysis relative to control; type: functional; conditions: dose 7.5 µM
[17] = Downregulation of c-Myc level in human NCI-H520 cells at 5 uM by measuring fold change by Western blot analysis relative to control; type: functional
NCI-H520 [18] = test: Induction of apoptosis in human NCI-H520 cells assessed as decrease in MCL-1 protein expression at […] by measuring fold change by Western blot analysis relative to control; type: functional; conditions: dose 7.5 µM
[19] = Downregulation of NSD3 level in human NCI-H520 cells at […] by measuring fold change by Western blot analysis relative to control; type: functional; conditions: dose 7.5 µM
[20] = Inhibition of clone formation in human NCI-H1703 cells at 3 uM incubated for 10 days with media replenishment for every 5 days by crystal violet staining based analysis relative to control; type: functional; conditions: NCI-H1703, 240 h, time 10 day

With `Cc1cc(CNCCCCCCCCCCC(=O)N[C@H](C(=O)N2C[C@H](O)C[C@H]2C(=O)N[C@@H](C)c2ccc(-c3scnc3C)cc2)C(C)(C)C)cc(C)c1-c1ncn(C)c1-c1ccnc2cc(F)ccc12` the Activity (NCI-H520 [1]) was “Active”, the Activity [2] was “inactive” and the “fold change (FC)” value [3] was 1.03. For the same compound, the “fold change (FC)” value [4] was 0.97, the Activity (NCI-H1703 [5]) was “Active” and the Activity (NCI-H1703 [6]) was “Active”. The Activity [7] was “Dose-Dependent Effect”, the “fold change (FC)” value (NCI-H1703 [8]) was 0.73 and the Activity (NCI-H1703 [9]) was 12.8%. It also gave an IC50 (A549) of 5.49 µM, a viability at 10 µM (NCI-H1703 [10]) of 7.76% and a viability at 3 µM (NCI-H1703 [11]) of 94.2%. The Activity (NCI-H1703 [12]) was “Active”, the EC50 [13] was 0.94 µM and the Activity (NCI-H1703 [14]) was 62.9%. The Activity (NCI-H1703 [15]) was 2.99%, the “fold change (FC)” value [16] was 0.78 and the “fold change (FC)” value [17] was 0.97. For the same compound, the “fold change (FC)” value (NCI-H520 [18]) was 0.61, the “fold change (FC)” value [19] was 0.61 and the inhibition at 3 µM [20] was 100%.
